{
  "source": "patent US20060235076A1",
  "about": "“Medicinal composition for treating infection with drug-resistant staphylococcus aureus” (priority 2003, published 2006)",
  "tested_on": "MRSA COL and MRSA Strain No. 5",
  "experiment": "Potentiating effect of various gallates for antibacterial activity of oxacillin (MIC by broth microdilution method and FIC)",
  "type": "cell-based, Staphylococcus aureus",
  "settings": "for effect of the combination use with oxacillin by FIC values: COL Strain and Strain No. 5; for FIC value: combination with oxacillin",
  "experimental": "According to the broth microdilution method defined by Japan Society of Chemotherapy, MIC was determined. CAMHA was prepared by adding 50 mg/l of Ca-ion, 25 mg/l of Mg-ion, and 2% of NaCl to MHB (Mueller-Hinton Broth), and it was used as a medium for use in the measurement of sensitivity. In 96-well microplates 100 μl of the medium for use in the measurement of sensitivity containing drugs was dispensed. The bacterial liquid was incubated at 37° C. overnight, diluted with saline and added to the plate so that the final concentration of the bacteria was 5×10^5 CFU/well. […] FIC (fractional inhibitory concentration) was calculated from the result and the potency of the effect of the combination use was evaluated.",
  "data": [
    {"smiles": "O=C(O[C@@H]1Cc2c(O)cc(O)cc2O[C@H]1c1cc(O)c(O)c(O)c1)c1cc(O)c(O)c(O)c1", "note": "[Gallocatechin gallate, gallocatechin gallate]", "values": [
      {"measurement": "effect of the combination use with oxacillin by FIC values", "value": "more potent effects of the combination use"},
      {"measurement": "FIC value", "setting": "MRSA COL", "value": 0.281},
      {"measurement": "FIC value", "setting": "MRSA Strain No. 5", "value": 0.188}
    ]},
    {"smiles": "O=C(O[C@@H]1Cc2c(O)cc(O)cc2O[C@@H]1c1ccc(O)c(O)c1)c1cc(O)c(O)c(O)c1", "note": "[Epicatechin gallate, epicatechin gallate]", "values": [
      {"measurement": "effect of the combination use with oxacillin by FIC values", "value": "more potent effects of the combination use"},
      {"measurement": "FIC value", "setting": "MRSA COL", "value": 0.127},
      {"measurement": "FIC value", "setting": "MRSA Strain No. 5", "value": 0.188}
    ]}
  ]
}
